According to patent publication US20110165183A1, “PIPERIDINE DERIVATIVES AS JAK3 INHIBITORS” (BioCryst Pharmaceuticals, Inc., priority 2008, published 2011):

A melting point of 107.7 °C was found for `C[C@@H]1CCN(C(=O)CC#N)C[C@@H]1N(C)c1ncnc2ccoc12` [Example 2, 3-((3R,4R)-3-(furo[3,2-d]pyrimidin-4-yl(methyl)amino)-4-methylpiperidin-1-yl)-3-oxopropanenitrile] in this work.
A melting point of 72 °C was found for `C[C@@H]1CCN(C(=O)CC#N)C[C@@H]1N(C)c1ncnn2ccnc12` [Example 4, 3-((3R,4R)-3-(Imidazo[1,2-f][1,2,4]triazin-4-yl(methyl)amino)-4-methylpiperidin-1-yl)-3-oxopropanenitrile] in this work.
A melting point of 119.3 °C was found for `Cc1cc(N(C)[C@H]2CN(C(=O)CC#N)CC[C@H]2C)n2ncnc2n1` [Example 8, 3-((3R,4R)-4-Methyl-3-(methyl(5-methyl-1,2,41-triazolo[1,5-a]pyrimidin-7-yl)amino)piperidin-1-yl)-3-oxopropanenitrile] in this work.
A melting point of 74.3 °C was found for `C[C@@H]1CCN(C(=O)CC#N)C[C@@H]1N(C)c1ncnc2sccc12` [Example 9, 3-((3R,4R)-4-methyl-3-(methyl(thieno[2,3-d]pyrimidin-4-yl)amino)piperidin-1-yl)-3-oxopropanenitrile] in this work.
A melting point of 103.4 °C was found for `C[C@@H]1CCN(c2ncnn3cccc23)C[C@@H]1N(C)c1ncnn2cccc12` [Example 17, N-Methyl-N-((3R,4R)-4-methyl-1-(pyrrolo[1,2-f][1,2,4]triazin-4-yl)piperidin-3-yl)pyrrolo[1,2-f][1,2,4]triazin-4-amine] in this work.
A melting point of 126.9 °C was found for `C[C@@H]1CCNC[C@@H]1N(C)c1nccc2[nH]ccc12` [Example 18, N-Methyl-N-((3R,4R)-4-methylpiperidin-3-yl)-1H-pyrrolo[3,2-c]pyridin-4-amine] in this work.
